We go through 2 compounds from patent US20070059369A1, “Subcutaneous delivery system, process for the preparation of the same and use of the same for the treatment of cholinergic deficient disorders” (priority 2003, published 2007).

SMILES strings stand for the structures.

For test [1] the following is noted: aged patients and patients suffering from Alzheimer's disease; cited from earlier work.
For test [2], the system named is cerebral hypoxia-ischemia rat model. The following applies: cited from earlier work.
In test [3] the test system is acetylcholinesterase (AChE). Kind of test: Inhibition of acetylcholinesterase. It counts as biochemical. The following applies: different species (rat, bovine and human).
The target in test [4] is butyrylcholinesterase (BuChE) (Homo sapiens, UniProt P06276). Kind of test: Inhibition of butyrylcholinesterase. The format is biochemical. Conditions: in contrast to AChE.
Chain of butyrylcholinesterase (BuChE) (P06276 29-602): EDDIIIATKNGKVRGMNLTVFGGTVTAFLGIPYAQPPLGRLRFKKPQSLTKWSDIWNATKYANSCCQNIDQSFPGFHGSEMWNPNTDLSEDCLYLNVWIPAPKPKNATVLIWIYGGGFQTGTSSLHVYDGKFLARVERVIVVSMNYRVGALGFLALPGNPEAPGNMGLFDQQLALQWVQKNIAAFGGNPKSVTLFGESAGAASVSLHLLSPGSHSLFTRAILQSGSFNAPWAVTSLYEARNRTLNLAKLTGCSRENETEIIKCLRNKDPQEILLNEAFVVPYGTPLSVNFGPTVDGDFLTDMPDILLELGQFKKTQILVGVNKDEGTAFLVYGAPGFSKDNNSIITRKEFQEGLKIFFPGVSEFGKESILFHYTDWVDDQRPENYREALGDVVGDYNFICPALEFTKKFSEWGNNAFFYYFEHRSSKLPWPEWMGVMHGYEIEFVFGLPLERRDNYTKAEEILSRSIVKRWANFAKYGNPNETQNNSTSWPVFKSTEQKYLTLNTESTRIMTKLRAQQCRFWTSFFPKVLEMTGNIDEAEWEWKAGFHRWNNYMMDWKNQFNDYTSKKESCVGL
A further test addresses acetylcholinesterase (Homo sapiens, UniProt P22303). Conditions: from EP 0 806 416; cited from earlier work.

Chain of acetylcholinesterase (P22303 32-614): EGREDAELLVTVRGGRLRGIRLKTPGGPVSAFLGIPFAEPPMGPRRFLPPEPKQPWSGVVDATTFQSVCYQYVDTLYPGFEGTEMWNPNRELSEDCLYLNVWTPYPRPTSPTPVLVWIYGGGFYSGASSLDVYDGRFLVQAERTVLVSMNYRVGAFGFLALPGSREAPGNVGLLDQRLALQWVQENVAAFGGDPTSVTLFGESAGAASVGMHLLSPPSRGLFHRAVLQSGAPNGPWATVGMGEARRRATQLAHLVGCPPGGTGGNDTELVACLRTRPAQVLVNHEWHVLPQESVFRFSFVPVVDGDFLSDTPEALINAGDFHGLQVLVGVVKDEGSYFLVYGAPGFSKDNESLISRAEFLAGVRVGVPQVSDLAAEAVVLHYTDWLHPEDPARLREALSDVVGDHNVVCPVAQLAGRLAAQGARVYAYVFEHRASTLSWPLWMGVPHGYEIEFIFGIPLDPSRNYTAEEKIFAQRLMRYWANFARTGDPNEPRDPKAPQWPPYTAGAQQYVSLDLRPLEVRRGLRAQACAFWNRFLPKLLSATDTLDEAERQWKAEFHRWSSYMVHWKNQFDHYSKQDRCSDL

For the compound `C/C=C1\[C@H]2C=C(C)C[C@]1(N)c1ccc(=O)[nH]c1C2` [Huperzine A], the Memory-enhancing effects result in test [1] was “memory-enhancing effects”. In test [2], the “Neuroprotective effect of rescue treatment” value is on record as “beneficial neuroprotective effect”.
Turning to `C/C=C1\C2C=C(C)CC1(/N=C/c1cc(Cl)cc(OC)c1O)c1ccc(=O)[nH]c1C2` (centres unmarked) [derivative of formula (III)], the “Inhibition of acetylcholinesterase (AChE)” value in test [3] was “potent and selective inhibitor”. Also, in test [4], the “Inhibitory activity on butyrylcholinesterase (BuChE)” value was “much weaker inhibitory activity”. Besides, the “Selectivity for acetylcholinesterase compared to butyrylcholinesterase” value at acetylcholinesterase is “highly selective activity in favour of acetylcholinesterase”.
